# Measured values published in article PMC9775191, “A Subset Screen of the Compounds Australia Scaffold Library Identifies 7-Acylaminodibenzoxazepinones as Potent and Selective Hits for Anti-Giardia Drug Discovery” (Biomedicines, 2022).
# Test system: G. duodenalis BRIS/91/HEPU/1279
# Assay: Primary Giardia screen at 10 µM (live-cell imaging, automated counting)
# Format: cell-based, Giardia duodenalis
# Settings: for % Inhibition n=1 24h / % Inhibition n=1 48h: first singlicate assay; for % Inhibition n=2 24h / % Inhibition n=2 48h: re-assessment
# Procedure, shortened: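 Compound added to 10 μM final in medium with 0.2% DMSO, one well each; plates then held in sealed chambers at 3% O2, 5% CO2 in N2; growth imaged and counted automatically at 24 and 48 h; values normalised to vehicle wells minus media blank.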
Compound,% Inhibition n=1 48h [%],other results
Cc1ccc(C)c(NC(=O)Cc2nc(Cn3cnc([N+](=O)[O-])c3)cs2)c1 [SN00779996],47.9,Average % Inhibition 24h: 8.5%; % Inhibition n=1 24h: 0.0%; % Inhibition n=2 24h: 16.9%; Average % Inhibition 48h: 59.9%; % Inhibition n=2 48h: 71.9%
CC(C)n1nc2c(cc1=O)CN(Cc1nc(-c3ccoc3)no1)CC2 [SN00773517],10.7,
CC1Cc2ccccc2N1C(=O)c1cc(-c2cccnc2)[nH]n1 (centres unmarked) [SN00792679],19.0,
COCC(=O)Nc1ccc(NC(=O)c2cc3nc(C)ccc3o2)cc1 [SN00781689],14.1,
Cc1cccc(NC(=O)C2CCCN(c3c([N+](=O)[O-])c(C)nn3C)C2)n1 (centres unmarked) [SN00775639],0.0,
C/C=C/c1ccc(OCC(=O)N2CCCN(C(=O)C3CCCC3)CC2)c(OC)c1 [SN00771493],16.5,
Cc1nn(Cc2ccccc2)c2sc(C(=O)N3CCN(C(=O)N4CCCCC4)CC3)cc12 [SN00774391],14.0,
O=C(Cn1c(-c2ccccn2)noc1=O)N1CCc2sccc2C1 [SN00781376],0.0,
Cc1csc(C2CCN(C(=O)c3ccccc3[N+](=O)[O-])CC2)n1 [SN00781474],8.2,
CC(=O)Nc1ccc2c(c1)CN(C(=O)C1CCCCC1)C(C(=O)N1CCCCC1)C2 (centres unmarked) [SN00798930],8.7,
Cn1ncc2c(N3CCCN(C4CC4)CC3)ncnc21 [SN00782468],9.8,
COc1cccc(Cn2c(CNC(=O)CCc3c(C)noc3C)nc3cccnc32)c1 [SN00793247],17.5,
COc1ccc(Nc2nc(-c3nnn(-c4ccc(F)cc4F)c3C)ns2)cc1OC [SN00798157],52.7,Average % Inhibition 24h: 11.4%; % Inhibition n=1 24h: 18.3%; % Inhibition n=2 24h: 4.5%; Average % Inhibition 48h: 26.3%; % Inhibition n=2 48h: 0.0%
Cc1ccc2oc(N3CCN(C(=O)C(C)c4ccccc4)CC3)nc2n1 (centres unmarked) [SN00786842],24.1,
CN(Cc1ccccc1)c1c2c(nc3nncn13)CCC2 [SN00785855],14.3,
O=C(Nc1ccccc1)c1cc(-c2cccs2)n(C2CCS(=O)(=O)C2)n1 (centres unmarked) [SN00786904],1.7,
Cc1sc(C(=O)N2CCCC2)c2ncnc(NCc3cccc(Cl)c3)c12 [SN00803183],47.9,Average % Inhibition 24h: 15.6%; % Inhibition n=1 24h: 29.7%; % Inhibition n=2 24h: 1.5%; Average % Inhibition 48h: 27.6%; % Inhibition n=2 48h: 7.3%
CCCNc1nc(N2CCN(CC)CC2)c2cnn(C)c2n1 [SN00792083],10.1,
CCc1cc(C2CCCN2C(=O)c2cnn3c(C(F)(F)F)cc(-c4cccs4)nc23)on1 (centres unmarked) [SN00793821],1.7,
Cc1cc(C(=O)COC(=O)C2(O)CCCCC2)c(C)n1-c1c(C)n(C)n(-c2ccccc2)c1=O [SN00773547],1.1,
COc1ccc(-c2ccnc3c(C(=O)NCc4ccc5c(c4)OCO5)cnn23)cc1OC [SN00802455],16.8,
COc1ccc(S(=O)(=O)N2CC=C(C(=O)Nc3ccc(Cl)cc3)CC2)cc1 [SN00785473],0.0,
COc1ccc(Cl)cc1NC(=O)Nc1ccc2c(c1)CN(Cc1ccccc1)C2 [SN00796317],57.6,Average % Inhibition 24h: 8.8%; % Inhibition n=1 24h: 17.7%; % Inhibition n=2 24h: 0.0%; Average % Inhibition 48h: 37.5%; % Inhibition n=2 48h: 17.4%

Compound,% Inhibition n=1 48h [%],other results
Cc1cccc(C2=NC3(CCN(C(=O)NC4CCCCC4)CC3)NC2=O)c1 [SN00792717],13.8,
CCc1nc(-c2cc(S(=O)(=O)NCc3ccc(F)c(Cl)c3)c(C)s2)cs1 [SN00798443],50.2,Average % Inhibition 24h: 15.2%; % Inhibition n=1 24h: 16.9%; % Inhibition n=2 24h: 13.6%; Average % Inhibition 48h: 43.8%; % Inhibition n=2 48h: 37.5%
COc1ccc(CNC(=O)c2sc(Nc3ccc(F)cn3)nc2C)cc1 [SN00797617],12.4,
CC(C)(C)c1cc2nc(-c3ccccc3)cc(C(=O)NC3CCCCNC3=O)n2n1 (centres unmarked) [SN00802787],0.0,
CCC1CN2C=NC(N3CCN(C(=O)CCc4ccccc4OC)CC3)=CC2=N1 (centres unmarked) [SN00800900],25.4,
c1ccc(-c2cn3nc(-c4ccccc4)n4c3c2CCCC4)cc1 [SN00776412],0.0,
CN(C)C(=O)c1ccc(OC2CCN(C(=O)c3ccco3)CC2)nc1 [SN00800077],13.6,
Cc1ccc(NC(=O)c2nc3c(=O)n(Cc4ccccc4C)c4cc(C)ccc4n3n2)cc1 [SN00794983],3.1,
Cc1c(C(=O)N2CCOCC2C)nnn1-c1cccc2c1CCN(Cc1ccccc1)C2 (centres unmarked) [SN00779590],5.5,
COc1ccc(CNC(=O)c2c(C)sc3cc(-c4ccccc4)oc23)cc1 [SN00796298],29.4,
CCC1c2cccn2-c2ccccc2CN1C(=O)NCCc1ccccc1 (centres unmarked) [SN00791262],18.8,
COC(=O)c1c(C(=O)OC)c(-c2ccc(NS(=O)(=O)c3ccc(C)s3)cc2)n2c1CCC2 [SN00780656],9.3,
Cc1nc(-c2cccc(N3CC(C(=O)NCc4ccccc4)CC3=O)c2)no1 (centres unmarked) [SN00789781],0.0,
CC(C)(C)c1ccc(C(=O)N2CCC3(CC2)N=C(c2cccc(Cl)c2)C(=O)N3)cc1 [SN00792200],32.1,
Cc1ccccc1NC(=O)c1nc(S(C)(=O)=O)ncc1N(Cc1ccco1)Cc1sccc1C [SN00786086],11.7,
O=C(C1CC1)N1CCCCCC1C1CCN(c2nccc(C(F)(F)F)n2)CC1 (centres unmarked) [SN00773266],15.0,
Cc1c(C(=O)Nc2cc(-c3ccncc3)n[nH]2)cccc1[N+](=O)[O-] [SN00776775],37.2,Average % Inhibition 24h: 6.4%; % Inhibition n=1 24h: 12.8%; % Inhibition n=2 24h: 0.0%; Average % Inhibition 48h: 21.4%; % Inhibition n=2 48h: 5.6%
CCCC(=O)Nc1ccc2c(c1)CN(C(=O)Cc1ccccc1C)C(C(=O)N(C)C)C2 (centres unmarked) [SN00798922],11.7,
Cc1ccc(-n2nc(C)c3sc(N4CCCC(C(=O)NCC5CCCO5)C4)nc32)cc1 (centres unmarked) [SN00796250],2.9,
O=C(Cn1nnc(-c2cccs2)n1)c1ccc(Cl)s1 [SN00775834],2.4,
CSc1ccc(CNC(=O)C2CCN(S(=O)(=O)c3ccc(-c4ccn[nH]4)o3)CC2)cc1 [SN00790551],11.7,
O=C(NCCCN1CCCCC1)c1cc(-c2cccs2)nc2ccccc12 [SN00784290],13.3,
CCCn1ccc2sc(C)c(C(=O)NC3CCCCC3)c2c1=O [SN00799943],16.0,

Compound,% Inhibition n=1 48h [%],other results
O=C(c1nnn(-c2ccccc2Cl)c1-c1ccncc1)N1CCc2ccccc2C1 [SN00796355],30.9,
Cc1ccc(CNC(=O)c2ccc3c(c2)CCN3S(=O)(=O)c2ccc(C)cc2)cc1 [SN00785985],38.5,
Cc1cccc(C(=O)Nc2cnc(N3CCNCC3)c(C(=O)N(CC(C)C)CC(C)C)c2)c1 [SN00795320],14.5,
CC1Cc2cc(S(=O)(=O)N3CCn4c3nc3ccccc34)ccc2N1C(=O)C1CCC1 (centres unmarked) [SN00788031],10.8,
COc1ccc2oc(-c3noc(C(NC(=O)c4ccco4)C(C)C)n3)c(C)c2c1 (centres unmarked) [SN00796606],9.9,
O=C(c1ccc2[nH]cnc2c1)N1CCN(Cc2cccc(Cl)c2)CC1 [SN00774568],0.0,
Cc1cccc(N(C)c2ccc3cc(S(=O)(=O)N4CCCC4)ccc3n2)c1 [SN00788730],7.2,
CCOc1ccccc1CNC(=O)c1nc(C(C)C)oc1C [SN00802425],24.0,
CCCNC(=O)[C@@H]1[C@@H]2C=C[C@@]3(CN(Cc4ccccc4Cl)C(=O)[C@H]13)O2 (relative stereo) [SN00784246],16.0,
Cc1cccc(-c2nc3sc(N4CCCCC4)nn3c2NC(=O)C2CC2)c1 [SN00799546],23.2,
O=C(NCc1ccccc1Cl)[C@H]1[C@H]2C(=O)N(Cc3cccs3)C[C@]23C=C[C@H]1O3 (relative stereo) [SN00784242],22.4,
O=C1CCCc2cc(S(=O)(=O)N3CCN(c4ccccc4)CC3)ccc2N1 [SN00788529],19.1,
CNc1nc(C(N)=O)c(NC(=O)c2ccc(OC)cc2)s1 [SN00794269],25.8,
COc1cccc(N2CCN(C(=O)c3ccc4noc(-c5ccccc5)c4c3)CC2)c1 [SN00777397],56.5,Average % Inhibition 24h: 9.9%; % Inhibition n=1 24h: 17.2%; % Inhibition n=2 24h: 2.5%; Average % Inhibition 48h: 28.2%; % Inhibition n=2 48h: 0.0%
CC(=O)N1CCN(Cc2nc3cc(Cl)ccc3n2C)CC1 [SN00773871],0.0,
COc1ccc(-c2nnc(-c3cccnc3N3CCN(C(=O)c4cccc(OC)c4)CC3)o2)cc1 [SN00797707],2.3,
Cc1ccc(Cn2nnc3c(=O)n(Cc4nc(-c5ccccc5)no4)cnc32)cc1 [SN00790594],2.1,
O=C(Cc1ccccc1Cl)NCCc1noc(-c2ccccn2)n1 [SN00781138],21.7,
COc1c(C(=O)Nc2ccc(C)cc2)oc2ccc(NC(=O)c3ccc(C)s3)cc12 [SN00798811],19.9,
CCn1nnc2cc(C(=O)N(C)CC(=O)NCc3cccc(C)c3)ccc21 [SN00789328],14.4,
Cc1ccccc1-c1noc(Cn2c(-c3ccccn3)noc2=O)n1 [SN00781291],0.0,
CCN1CCN(C(=O)c2ccc(N3CCCC3=O)cc2)CC1 [SN00784919],8.8,
COc1ccc(C2(C(=O)N3CCC(Cc4nc(-c5ccc(F)cc5)no4)CC3)CC2)cc1 [SN00801690],0.0,
